Experimental data reported in paper PMC8222254, “Self-assembly of an anion receptor with metal-dependent kinase inhibition and potent in vitro anti-cancer properties” (Nature Communications, 2021).
“And” between values parts separate entries of the source, which are not always exact repeats. Equal entries are not always repeated.

Key:
Assay in all cases: Kinase inhibition screen, cell-free 33P ATP assay at 10 μM
Assay type in all cases: biochemical
[1] = target: T1, 140 purified human kinases (Homo sapiens, UniProt Q9UKI8)
T1 sequence (Q9UKI8 1-766): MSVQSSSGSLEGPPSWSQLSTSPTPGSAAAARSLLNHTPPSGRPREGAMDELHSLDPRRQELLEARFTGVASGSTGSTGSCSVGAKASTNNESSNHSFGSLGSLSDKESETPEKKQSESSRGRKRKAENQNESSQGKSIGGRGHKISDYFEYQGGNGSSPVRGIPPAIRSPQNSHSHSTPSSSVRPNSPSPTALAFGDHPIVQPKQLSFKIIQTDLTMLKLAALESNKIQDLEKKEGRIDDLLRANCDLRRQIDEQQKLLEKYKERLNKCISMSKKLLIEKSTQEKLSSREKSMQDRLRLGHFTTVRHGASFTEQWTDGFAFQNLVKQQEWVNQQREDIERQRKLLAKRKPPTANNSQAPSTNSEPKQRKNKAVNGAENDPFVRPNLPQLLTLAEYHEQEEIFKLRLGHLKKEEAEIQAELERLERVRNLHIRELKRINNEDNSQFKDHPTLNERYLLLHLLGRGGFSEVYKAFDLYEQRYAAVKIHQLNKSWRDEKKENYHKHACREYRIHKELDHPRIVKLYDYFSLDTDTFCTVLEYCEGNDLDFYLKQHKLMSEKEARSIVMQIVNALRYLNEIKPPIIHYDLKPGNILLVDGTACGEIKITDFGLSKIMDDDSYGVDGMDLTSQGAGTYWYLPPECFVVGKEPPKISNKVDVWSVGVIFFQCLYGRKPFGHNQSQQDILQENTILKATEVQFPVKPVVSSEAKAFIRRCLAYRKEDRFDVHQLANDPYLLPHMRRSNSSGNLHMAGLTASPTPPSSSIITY
Method in brief: (§1)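 Each complex tested in duplicate at 10 μM; cell-free radiometric assay using ^33P ATP on purified enzymes. Hits mapped by HGNC symbol onto the kinome tree.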

[2] = target: 140 purified human kinases (Homo sapiens, UniProt P27448)
Method in brief: as §1

[3] = target: 140 purified human kinases (Homo sapiens, UniProt P54764)
Method in brief: as §1

[4] = target: 140 purified human kinases (Homo sapiens, UniProt Q02763)
Method in brief: as §1

[5] = target: T2, 140 purified human kinases (Homo sapiens, UniProt P52333)
T2 sequence (P52333 1-1124): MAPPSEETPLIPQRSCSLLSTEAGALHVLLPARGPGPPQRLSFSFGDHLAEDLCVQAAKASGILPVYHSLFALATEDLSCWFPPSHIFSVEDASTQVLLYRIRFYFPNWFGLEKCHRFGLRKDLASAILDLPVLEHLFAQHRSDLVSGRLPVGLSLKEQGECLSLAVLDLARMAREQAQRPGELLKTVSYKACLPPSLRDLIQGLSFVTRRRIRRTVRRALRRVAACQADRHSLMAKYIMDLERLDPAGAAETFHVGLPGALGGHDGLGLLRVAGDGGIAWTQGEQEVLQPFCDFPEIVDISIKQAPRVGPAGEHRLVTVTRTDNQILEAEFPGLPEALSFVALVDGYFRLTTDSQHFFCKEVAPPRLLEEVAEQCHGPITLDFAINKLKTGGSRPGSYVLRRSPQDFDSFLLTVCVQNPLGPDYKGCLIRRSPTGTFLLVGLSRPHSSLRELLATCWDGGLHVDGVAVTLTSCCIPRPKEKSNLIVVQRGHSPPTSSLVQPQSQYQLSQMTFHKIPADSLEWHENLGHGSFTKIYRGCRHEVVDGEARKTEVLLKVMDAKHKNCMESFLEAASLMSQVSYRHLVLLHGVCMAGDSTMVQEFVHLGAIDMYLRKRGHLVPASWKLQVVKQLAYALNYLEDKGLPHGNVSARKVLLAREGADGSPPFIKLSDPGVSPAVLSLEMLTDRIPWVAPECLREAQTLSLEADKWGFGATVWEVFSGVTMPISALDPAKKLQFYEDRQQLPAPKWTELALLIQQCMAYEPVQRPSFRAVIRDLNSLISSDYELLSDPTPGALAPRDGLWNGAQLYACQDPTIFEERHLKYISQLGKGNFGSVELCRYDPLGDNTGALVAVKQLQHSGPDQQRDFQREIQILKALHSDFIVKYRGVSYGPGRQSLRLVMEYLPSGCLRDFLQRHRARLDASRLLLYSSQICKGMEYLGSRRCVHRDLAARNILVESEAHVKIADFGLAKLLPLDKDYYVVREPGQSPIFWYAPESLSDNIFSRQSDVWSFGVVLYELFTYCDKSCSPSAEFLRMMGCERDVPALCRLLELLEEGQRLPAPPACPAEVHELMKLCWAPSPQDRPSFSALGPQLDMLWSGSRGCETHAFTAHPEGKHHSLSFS
Method in brief: as §1

Chain of 140 purified human kinases (Homo sapiens, UniProt P27448) (P27448 whole entry): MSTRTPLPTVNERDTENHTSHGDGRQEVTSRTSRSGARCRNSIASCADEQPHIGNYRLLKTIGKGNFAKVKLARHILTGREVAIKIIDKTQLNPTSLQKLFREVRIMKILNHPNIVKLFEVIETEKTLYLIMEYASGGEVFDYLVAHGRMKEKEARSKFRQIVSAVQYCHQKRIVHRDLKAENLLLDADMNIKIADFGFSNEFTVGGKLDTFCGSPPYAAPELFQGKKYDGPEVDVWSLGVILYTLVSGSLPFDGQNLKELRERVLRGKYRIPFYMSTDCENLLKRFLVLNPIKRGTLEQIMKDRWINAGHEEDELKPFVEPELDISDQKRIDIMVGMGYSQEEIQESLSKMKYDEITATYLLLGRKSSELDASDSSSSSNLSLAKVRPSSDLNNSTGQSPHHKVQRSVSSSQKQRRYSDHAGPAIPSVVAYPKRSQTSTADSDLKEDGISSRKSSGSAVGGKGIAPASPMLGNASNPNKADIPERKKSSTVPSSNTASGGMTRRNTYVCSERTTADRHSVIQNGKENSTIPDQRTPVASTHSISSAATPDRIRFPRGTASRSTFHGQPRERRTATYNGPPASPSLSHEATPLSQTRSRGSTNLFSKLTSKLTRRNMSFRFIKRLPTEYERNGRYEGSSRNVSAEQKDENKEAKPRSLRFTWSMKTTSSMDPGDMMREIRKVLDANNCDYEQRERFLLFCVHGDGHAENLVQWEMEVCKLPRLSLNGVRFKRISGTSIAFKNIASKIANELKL
Chain of 140 purified human kinases (Homo sapiens, UniProt P54764) (P54764 20-986): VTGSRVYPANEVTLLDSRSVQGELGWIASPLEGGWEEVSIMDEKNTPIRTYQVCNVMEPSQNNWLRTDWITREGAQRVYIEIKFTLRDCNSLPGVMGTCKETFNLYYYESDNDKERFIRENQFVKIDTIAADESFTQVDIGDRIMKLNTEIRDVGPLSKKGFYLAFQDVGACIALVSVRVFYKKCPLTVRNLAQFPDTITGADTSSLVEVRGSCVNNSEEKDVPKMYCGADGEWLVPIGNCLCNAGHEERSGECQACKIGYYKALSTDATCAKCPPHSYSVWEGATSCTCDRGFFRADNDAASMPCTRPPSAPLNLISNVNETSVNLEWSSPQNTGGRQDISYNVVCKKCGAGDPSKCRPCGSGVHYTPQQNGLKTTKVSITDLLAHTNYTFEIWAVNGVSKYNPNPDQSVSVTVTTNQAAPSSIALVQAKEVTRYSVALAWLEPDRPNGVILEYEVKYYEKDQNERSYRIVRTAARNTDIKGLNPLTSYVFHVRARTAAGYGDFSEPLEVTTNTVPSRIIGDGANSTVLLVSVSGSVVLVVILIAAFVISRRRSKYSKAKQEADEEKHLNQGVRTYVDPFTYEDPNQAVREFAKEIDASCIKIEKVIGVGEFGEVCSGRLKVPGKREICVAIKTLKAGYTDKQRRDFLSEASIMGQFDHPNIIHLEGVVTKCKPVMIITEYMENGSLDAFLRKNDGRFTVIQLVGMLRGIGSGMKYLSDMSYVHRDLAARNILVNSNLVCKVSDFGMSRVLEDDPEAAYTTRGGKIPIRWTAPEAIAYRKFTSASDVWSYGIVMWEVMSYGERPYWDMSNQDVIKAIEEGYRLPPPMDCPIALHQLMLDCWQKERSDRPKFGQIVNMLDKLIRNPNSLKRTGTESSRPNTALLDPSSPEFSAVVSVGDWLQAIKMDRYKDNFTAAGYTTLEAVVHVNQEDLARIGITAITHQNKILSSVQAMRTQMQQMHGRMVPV
Chain of 140 purified human kinases (Homo sapiens, UniProt Q02763) (Q02763 23-1124): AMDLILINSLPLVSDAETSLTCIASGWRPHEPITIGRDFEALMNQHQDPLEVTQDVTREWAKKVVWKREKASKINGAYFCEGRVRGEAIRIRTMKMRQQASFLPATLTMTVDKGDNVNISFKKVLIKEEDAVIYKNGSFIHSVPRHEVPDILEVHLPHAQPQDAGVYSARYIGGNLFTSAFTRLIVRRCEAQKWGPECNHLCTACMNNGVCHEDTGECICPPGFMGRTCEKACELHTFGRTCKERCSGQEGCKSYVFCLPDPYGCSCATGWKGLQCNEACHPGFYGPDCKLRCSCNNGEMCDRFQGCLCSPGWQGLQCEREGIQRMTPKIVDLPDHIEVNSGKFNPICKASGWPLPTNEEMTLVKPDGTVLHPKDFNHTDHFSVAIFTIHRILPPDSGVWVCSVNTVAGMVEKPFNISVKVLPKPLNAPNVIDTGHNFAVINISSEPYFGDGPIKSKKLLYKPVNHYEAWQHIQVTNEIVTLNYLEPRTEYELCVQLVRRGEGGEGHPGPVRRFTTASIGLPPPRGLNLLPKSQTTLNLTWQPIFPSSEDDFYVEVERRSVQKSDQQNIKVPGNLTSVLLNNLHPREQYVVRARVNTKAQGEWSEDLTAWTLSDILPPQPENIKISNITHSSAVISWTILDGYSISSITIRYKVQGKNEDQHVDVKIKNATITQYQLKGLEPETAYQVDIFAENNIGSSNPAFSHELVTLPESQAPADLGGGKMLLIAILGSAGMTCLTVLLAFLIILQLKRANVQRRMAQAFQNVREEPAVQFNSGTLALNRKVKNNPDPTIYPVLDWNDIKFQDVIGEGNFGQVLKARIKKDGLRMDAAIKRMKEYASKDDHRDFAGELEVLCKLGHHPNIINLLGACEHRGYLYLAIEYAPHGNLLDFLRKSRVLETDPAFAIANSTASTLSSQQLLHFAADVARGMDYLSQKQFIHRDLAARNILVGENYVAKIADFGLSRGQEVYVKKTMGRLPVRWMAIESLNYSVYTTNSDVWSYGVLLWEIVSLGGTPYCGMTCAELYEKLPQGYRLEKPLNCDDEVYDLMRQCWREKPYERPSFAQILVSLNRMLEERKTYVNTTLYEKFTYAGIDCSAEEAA

In the case of `CC(=O)[O-].CC(=O)[O-].CC(=O)[O-].CC(=O)[O-].CC(=O)[O-].CC(=O)[O-].[Zn+2].[Zn+2].[Zn+2].c1ccc(-c2csc(NCCN(CCNc3nc(-c4ccccn4)cs3)CCNc3nc(-c4ccccn4)cs3)n2)nc1.c1ccc(-c2csc(NCCN(CCNc3nc(-c4ccccn4)cs3)CCNc3nc(-c4ccccn4)cs3)n2)nc1` [[L2Zn3]6+], the “% Inhibition, Mean” value ([1]; TLK1) is reported as -0.3%, the mean % activity ([1]; TLK1) is reported as 100% and the “% activity” value ([1]; TLK1, duplicate runs) is reported as 92% and 109%. For the same molecule, the “% Inhibition, Mean” value ([2]; MARK3) was 4.7%, the “% Inhibition, Run 1 / Run 2” value ([2]; MARK3) was 1.7% and 8% and the mean % activity ([2]; MARK3) was 95%. The “% activity” value ([2]; MARK3, duplicate runs) was 98% and 92%, the “% Inhibition, Mean” value ([3]; EPH-A4) was 27% and the “% Inhibition, Run 1 / Run 2” value ([3]; EPH-A4) was 30% and 25%. For the same molecule, the mean % activity ([3]; EPH-A4) was 73%, the “% activity” value ([3]; EPH-A4, duplicate runs) was 70% and 75% and the “% Inhibition, Mean” value ([4]; TIE2) was 85%. The “% Inhibition, Run 1 / Run 2” value ([4]; TIE2) was 92% and 78%, the mean % activity ([4]; TIE2) was 15% and the “% Activity inhibition Mean” value ([4]; TIE2, 10 µM) was 84.5%. For the same molecule, the “% Activity inhibition Run 1” value ([4]; TIE2, 10 µM) was 92%, the “% Activity inhibition Run 2” value ([4]; TIE2, 10 µM) was 77% and the “% Activity remaining Run 1” value ([4]; TIE2, 10 µM) was 8%. For the same molecule, the “% Activity remaining Run 2” value ([4]; TIE2, 10 µM) was 23%, the “% Inhibition, Mean” value ([5]; JAK3) was 17% and the mean % activity ([5]; JAK3) was 83%. The “% activity” value ([5]; JAK3, duplicate runs) was 66% and 99%.
`[Cu+2].[Cu+2].[Cu+2].c1ccc(-c2csc(NCCN(CCNc3nc(-c4ccccn4)cs3)CCNc3nc(-c4ccccn4)cs3)n2)nc1.c1ccc(-c2csc(NCCN(CCNc3nc(-c4ccccn4)cs3)CCNc3nc(-c4ccccn4)cs3)n2)nc1` [[L2Cu3]6+] was tested, and the “% Activation, Mean value” ([1]; TLK1) was 16%, the “% Inhibition Run 1” value ([1]; TLK1) was -7.2% and the “% Inhibition Run 2” value ([1]; TLK1) was -24.2%. For the same molecule, the “% Inhibition, Mean” value ([1]; TLK1) was -16%, the mean % activity ([1]; TLK1) was 116% and the “% activity” value ([1]; TLK1, Run 1) was 107.2%. For the same molecule, the “% activity” value ([1]; TLK1, Run 2) was 124.2%, the “% Activity Run 1” value ([1]; TLK1, 10 µM) was 107.20% and the “% Activity Run 2” value ([1]; TLK1, 10 µM) was 124.20%. For the same molecule, the “% Inhibition Run 1” value ([2]; MARK3) was 28.5%, the “% Inhibition Run 2” value ([2]; MARK3) was 28.2% and the “% Inhibition, Mean” value ([2]; MARK3) was 28%. The mean % activity ([2]; MARK3) was 72%, the “% activity” value ([2]; MARK3, Run 1) was 71.5% and the “% activity” value ([2]; MARK3, Run 2) was 71.8%. The “% Inhibition Run 1” value ([3]; EPH-A4) was 4.5%, the “% Inhibition Run 2” value ([3]; EPH-A4) was -3.1% and the “% Inhibition, Mean” value ([3]; EPH-A4) was 0.7%. For the same molecule, the mean % activity ([3]; EPH-A4) was 99%, the “% activity” value ([3]; EPH-A4, Run 1) was 95.5% and the “% activity” value ([3]; EPH-A4, Run 2) was 103.1%. The “% Inhibition Run 1” value ([4]; TIE2) was 73.2%, the “% Inhibition Run 2” value ([4]; TIE2) was 55% and the “% Inhibition, Mean” value ([4]; TIE2) was 64%. The mean % activity ([4]; TIE2) was 36%, the “% activity” value ([4]; TIE2, Run 1) was 26.8% and the “% activity” value ([4]; TIE2, Run 2) was 45%. For the same molecule, the “% Inhibition Run 1” value ([5]; JAK3) was 39.3%, the “% Inhibition Run 2” value ([5]; JAK3) was 44.6% and the “% Inhibition, Mean” value ([5]; JAK3) was 42%. For the same molecule, the mean % activity ([5]; JAK3) was 58%, the “% activity” value ([5]; JAK3, Run 1) was 60.7% and the “% activity” value ([5]; JAK3, Run 2) was 55.4%.
